Measured values from patent publication US11192900B2, “Substituted 1,6-dihydropyridinones and 1,2-dihydroisoquinolinones as bet inhibitors” (NUVATION BIO INC., priority 2018, dated 2021).
Where two headings read alike, the source gives them in different places.

Tests used:
[1] = test system: MV-4-11 human acute myeloid leukemia cell line; experiment: Second cell viability assay in MV-4-11 (Cell Titer-Glo); format: cell-based; conditions: MV4-11, Cell Titer-Glo, 72 hrs, read-out: Cell Viability IC50 in MV4-11 cells
Procedure: The effects of test compounds were studied in a second cell viability assay in the MV-4-11 human acute myeloid leukemia cell line. The cells were harvested during the logarithmic growth period and counted. Cells were seeded at a count of 15000 cells per well/100 μl. After seeding, cells were incubated at 37° C., 5% CO2 for 1 hr. Cells were treated with test compounds at 8 concentrations within a desired concentration range (e.g. 5 nM-[…]) for generation of dose response curves by preparing serial dilutions of the test compound in DMSO which were further diluted with culture medium and then added to each well. The plate was further incubated for another 72 hrs in a humidified incubator at 37° C. and 5% CO2. The assay was terminated by addition of Cell Titer-Glo reagent (Promega, Madison, Wis.) at ¼ the volume of total medium per well. Contents were mixed, the plate was incubated for 10 min at room temperature and luminescence was measured. Cell viability data were plotted using GraphPad Prism (GraphPad Software, Inc., San Diego, Calif.). In addition, a nonlinear regression model with a sigmoidal dose response and variable slope within GraphPad Prism was used to calculate the IC50 value of individual test compounds.

[2] = test system: IEC-6 rat intestinal epithelial cell line; experiment: IEC-6 cell viability, Protocol B (toxicity to non-cancerous cells); format: cell-based; conditions: IEC-6, 4000 cells per well, 48 hrs
Procedure: The effects of test compounds were also studied in the IEC-6 rat intestinal epithelial cell line to assess potential toxicity to non-cancerous cells. The cells were harvested during the logarithmic growth period and counted. In Protocol A, cells were seeded at a count of 3000 cells per well/100 μl in a 96-well plate. After seeding, cells were incubated at 37° C., 5% CO2 for 24 hr. Cells were treated with test compounds at 8 concentrations within a desired concentration range (e.g. 5 nM-10 μM) for generation of dose response curves by preparing serial dilutions of the test compound in DMSO which were further diluted with culture medium and then added to each well. The plate was further incubated for another 96 hrs in humidified incubator at 37° C. and 5% CO2. The assay was terminated by addition of resazurin (# R7017, Sigma). The plate was incubated for 4 hr at 37° C., 5% CO2 and fluorescence was measured using excitation and emission wavelengths of 535 and 590 nm, respectively. Cell viability data were plotted using GraphPad Prism (GraphPad Software, Inc., San Diego, Calif.). In addition, a nonlinear regression model with a sigmoidal dose response and variable slope within GraphPad Prism was used to calculate the IC50 value of individual test compounds. Protocol B was the same as Protocol A except that cells were seeded at a count of 4000 cells per well/100 μl in a 96-well plate, and the incubation with test compound was for 48 hrs instead of 96 hrs.

BRD4-2 = BRD4-2 (Homo sapiens (Human), UniProt O60885); experiment: Bromodomain and Extraterminal Domain (BET) Binding Assay; conditions: Table 3; read-out: BRD4-2 IC50
Procedure: (§1) The bromodomain binding assays were performed by Reaction Biology Corp., Malvern, Pa., USA (www.reactionbiology.com). The BET binding assays were conducted in 384 well microplates in assay buffer (50 mM HEPES-HCl, pH 7.5, 100 mM NaCl, 1 mg/ml BSA, 0.05% CHAPS, and 0.5% DMSO) with compounds added as DMSO stocks at a single concentration or with 10-point dose response titrations. BET protein or assay buffer were delivered to the appropriate wells of the microplate. Test compound was then delivered by acoustic technology via a Labcyte Echo550 liquid handler. The microplate was centrifuged for 5 min and pre-incubated for 30 min at RT with gentle shaking. The ligand (histone H4 peptide (1-21) K5/8/12/16Ac-biotin) was delivered and the microplate was again centrifuged for 5 min and allowed to incubate for 30 min at RT with gentle shaking. Donor beads were then added in the absence of light and the microplate was centrifuged and gently shaken. After 5 min, acceptor beads were added in the absence of light and the microplate was centrifuged and gently shakenin the dark for 60 min. The microplate was read using a Perkin Elmer EnSpire Alpha plate reader (λEx/λEm=680/520-620 nm). Percent inhibition was calculated relative to positive and negative controls on a per plate basis. For titration experiments, IC50 values were determined by fitting the percent inhibition versus compound concentration.

BRD4-1 = BRD4-1 (Homo sapiens (Human), UniProt O60885); experiment: as above; conditions: Table 3; read-out: BRD4-1 IC50
Procedure: as §1

[3] = test system: 22Rv1 human prostate carcinoma cell line; experiment: Cell viability assay (resazurin); format: cell-based; conditions: 22Rv1, resazurin, 72 hrs
Procedure: The effects of test compounds were also studied in the 22Rv1 human prostate carcinoma and MDA-MB-231 human breast adenocarcinoma cell lines. The cells were harvested during the logarithmic growth period and counted. Cells were seeded at a count of 3000 cells (22Rv1) or 5000 cells (MDA-MB-231) per well/100 μl in a 96-well plate. After seeding, cells were incubated at 37° C., 5% CO2 for 24 hr. Cells were treated with test compounds at 8 concentrations within a desired concentration range (e.g. 5 nM-10 μM) for generation of dose response curves by preparing serial dilutions of the test compound in DMSO which were further diluted with culture medium and then added to each well. The plate was further incubated for another 72 hrs (22Rv1) or 96 hrs (MDA-MB-231) in humidified incubator at 37° C. and 5% CO2. The assay was terminated by addition of resazurin (# R7017, Sigma). The plate was incubated for 4 hr at 37° C., 5% CO2 and fluorescence was measured using excitation and emission wavelengths of 535 and 590 nm, respectively. Cell viability data were plotted using GraphPad Prism (GraphPad Software, Inc., San Diego, Calif.). In addition, a nonlinear regression model with a sigmoidal dose response and variable slope within GraphPad Prism was used to calculate the IC50 value of individual test compounds.

c-Myc = experiment: Measurement of c-Myc suppression after washoff (Western blot); format: cell-based, human; conditions: MV4-11, 2 μM for 2 hr, washed, further 6 hr
Procedure: MV4-11 cells were incubated with 2 μM of JQ1, mivebresib or a test compound for 2 hr. The cells were then washed twice with fresh culture medium and further cultured for another 6 hr. Cells were extracted with SDS sample buffers and then subjected to Western blot analysis to measure c-Myc. Compounds 2, 3, 12, 17, 409, 411 and 412 were tested in these assays.

22Rv1 cells = experiment: 22Rv1 cell proliferation assay with wash-off or mock wash-off; format: cell-based, human
Procedure: A 22Rv1 cell proliferation assay was used to assess durability of test compound effects after transient exposure of test compound to cells. 22Rv1 cells were seeded at 3000 cells per well/100 μl in a 96-well plate and incubated with test compounds at specified dilutions for 2 hr at 37° C. and 5% CO2. Following the incubation, test compound was washed off and replacement culture medium without test compound was added. Wash-off was performed by three PBS washes. The cells were incubated for an additional 96 hr at 37° C. and 5% CO2. In parallel, a mock wash-off was performed with cells that were treated identically except that the replacement culture medium contained test compound. The plate was incubated for 4 hr at 37° C., 5% CO2 and fluorescence was measured using excitation and emission wavelengths of 535 and 590 nm, respectively. Cell viability data were plotted using GraphPad Prism (GraphPad Software, Inc., San Diego, Calif.). In addition, a nonlinear regression model with a sigmoidal dose response and variable slope within GraphPad Prism was used to calculate the IC50 value of individual test compounds.

CC(=O)Nc1ccc(Oc2c(C)cc(F)cc2C)c(-n2cc(C)c(=O)c3ccccc32)c1 [Compound 710, N-(4-(4-fluoro-2,6-dimethylphenoxy)-3-(3-methyl-4-oxoquinolin-1(4H)-yl)phenyl)acetamide]
IC50 ([1]; Homo sapiens): 2460 nM | IC50 ([2]; Rattus norvegicus): 7550 nM | IC50 (BRD4-2): 292 nM | IC50 (BRD4-1): 8150 nM | IC50 [3]: 6660 nM

C=CC(=O)Nc1ccc(Oc2c(C)cccc2C)c(-c2cc(NC)c(=O)n(C)c2)c1 [Compound 411, N-(4-(2,6-dimethylphenoxy)-3-(1-methyl-5-(methylamino)-6-oxo-1,6-dihydropyridin-3-yl)phenyl)acrylamide]
IC50 ([1]; Homo sapiens): 74 nM | IC50 (BRD4-2): 10 nM | IC50 (BRD4-1): 347 nM | c-Myc suppression activity after washoff (c-Myc): less durable or no suppression activity

C=CC(=O)Nc1ccc(Oc2ccc(F)cc2F)c(-c2cn(C)c(=O)cc2OC)c1 [Compound 407, N-(4-(2,4-difluorophenoxy)-3-(4-methoxy-1-methyl-6-oxo-1,6-dihydropyridin-3-yl)phenyl)acrylamide]
IC50 ([1]; Homo sapiens): 51 nM | IC50 ([2]; Rattus norvegicus): 693 nM | IC50 (BRD4-2): 11 nM | IC50 (BRD4-1): 183 nM | c-Myc suppression activity after washoff (c-Myc): less durable activity

Cc1sc2c(c1C)C(c1ccc(Cl)cc1)=N[C@@H](CC(=O)OC(C)(C)C)c1nnc(C)n1-2 [JQ1, reference compound]
IC50 (22Rv1 cells; 22Rv1, 2 hr exposure, three PBS washes, additional 96 hr without compound, read-out: Wash-off IC50): > 10000 nM | IC50 (22Rv1 cells; 22Rv1, 2 hr, replacement medium with test compound, additional 96 hr, read-out: Mock wash-off IC50): 71 nM

CCS(=O)(=O)Nc1ccc(Oc2ccc(F)cc2F)c(-n2cc(Cl)c(=O)c3ccccc32)c1 [Compound 661, N-(3-(3-chloro-4-oxoquinolin-1(4H)-yl)-4-(2,4-difluorophenoxy)phenyl)ethanesulfonamide]
IC50 ([1]; Homo sapiens): 71 nM | IC50 ([2]; Rattus norvegicus): 273 nM | IC50 (BRD4-2): 5 nM | IC50 (BRD4-1): 20 nM

CCS(=O)(=O)Nc1ccc(Oc2c(C)cc(F)cc2C)c(-n2cc(C)c(=O)c3ccccc32)c1 [Compound 570, N-(4-(4-fluoro-2,6-dimethylphenoxy)-3-(3-methyl-4-oxoquinolin-1(4H)-yl)phenyl)ethanesulfonamide]
IC50 ([1]; Homo sapiens): 526 nM | IC50 ([2]; Rattus norvegicus): 2860 nM | IC50 (BRD4-2): 11 nM | IC50 (BRD4-1): 1370 nM | IC50 [3]: 1270 nM

C=CC(=O)Nc1ccc(Oc2ccc(OC)cc2)c(-c2cn(C)c(=O)c3ccccc23)c1 [Compound 409, N-(4-(4-methoxyphenoxy)-3-(2-methyl-1-oxo-1,2-dihydroisoquinolin-4-yl)phenyl)acrylamide]
IC50 ([1]; Homo sapiens): 253 nM | IC50 (BRD4-2): 75 nM | IC50 (BRD4-1): 479 nM | c-Myc suppression activity after washoff (c-Myc): rebound in c-Myc expression

CCS(=O)(=O)Nc1ccc(Oc2ccc(F)cc2F)c(-n2ccc(=O)c3ccccc32)c1 [Compound 709, N-(4-(2,4-difluorophenoxy)-3-(4-oxoquinolin-1(4H)-yl)phenyl)ethanesulfonamide]
IC50 [1]: 979 nM | IC50 [2]: 2900 nM | IC50 (BRD4-2): 93 nM | IC50 (BRD4-1): 1210 nM

C=CC(=O)Nc1ccc(Oc2c(C)cc(F)cc2C)c(-c2cn(C)c(=O)c3cc(C(=O)NCC)sc23)c1 [Compound 588, 7-(5-acrylamido-2-(4-fluoro-2,6-dimethylphenoxy)phenyl)-N-ethyl-5-methyl-4-oxo-4,5-dihydrothieno[3,2-c]pyridine-2-carboxamide]
IC50 ([1]; Homo sapiens): 82 nM | IC50 (BRD4-2): 6 nM | IC50 (BRD4-1): 2850 nM | c-Myc suppression activity after washoff (c-Myc): less durable activity

C=CS(=O)(=O)Nc1ccc(Oc2ccc(F)cc2F)c(-c2cn(C)c(=O)cc2OC)c1 [Compound 406, N-(4-(2,4-difluorophenoxy)-3-(4-methoxy-1-methyl-6-oxo-1,6-dihydropyridin-3-yl)phenyl)ethenesulfonamide]
IC50 (22Rv1 cells; Homo sapiens, 22Rv1, 2 hr exposure, three PBS washes, additional 96 hr without compound, read-out: Wash-off IC50): 415 nM | IC50 (22Rv1 cells; Homo sapiens, 22Rv1, 2 hr, replacement medium with test compound, additional 96 hr, read-out: Mock wash-off IC50): 255 nM | IC50 ([1]; Homo sapiens): 114 nM | IC50 (BRD4-2): 3 nM | IC50 (BRD4-1): 22 nM

C=CC(=O)Nc1ccc(Nc2c(C)cccc2C)c(-c2cn(C)c(=O)c3cc(C(=O)NCC)sc23)c1 [Compound 585, 7-(5-acrylamido-2-(2,6-dimethylphenylamino)phenyl)-N-ethyl-5-methyl-4-oxo-4,5-dihydrothieno[3,2-c]pyridine-2-carboxamide]
IC50 ([1]; Homo sapiens): 221 nM | IC50 (BRD4-2): 43 nM | IC50 (BRD4-1): 5070 nM | c-Myc suppression activity after washoff (c-Myc): less durable activity

C=CC(=O)Nc1ccc(Oc2c(C)cccc2C)c(-c2cn(C)c(=O)c3cc(C(=O)NCC)sc23)c1 [Compound 412, 7-(5-acrylamido-2-(2,6-dimethylphenoxy)phenyl)-N-ethyl-5-methyl-4-oxo-4,5-dihydrothieno[3,2-c]pyridine-2-carboxamide]
IC50 ([1]; Homo sapiens): 25 nM | IC50 (BRD4-2): 4 nM | IC50 (BRD4-1): 1740 nM | c-Myc suppression activity after washoff (c-Myc): less durable or no suppression activity
